Measurements taken from PubChem BioAssay (NCI).
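Five concentrations, 48 hours, 96-well plates. The concentration for full growth arrest is given as TGI.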

Assays:
Assay in all cases: inhibition of tumour cell growth, NCI panel, 48 h
HL-60(TB) leukemia = test system: HL-60(TB) leukemia
OVCAR-3 ovarian = test system: OVCAR-3 ovarian
COLO 205 colon = test system: COLO 205 colon
EKVX NSCLC = test system: EKVX NSCLC
SK-MEL-5 melanoma = test system: SK-MEL-5 melanoma
NCI-H522 lung = test system: NCI-H522 lung
T-47D breast = test system: T-47D breast
UACC-62 melanoma = test system: UACC-62 melanoma
CCRF-CEM leukemia = test system: CCRF-CEM leukemia
NCI-H460 lung = test system: NCI-H460 lung
HS 578T breast = test system: HS 578T breast
U251 CNS = test system: U251 CNS
HOP-62 NSCLC = test system: HOP-62 NSCLC
NCI-H23 lung = test system: NCI-H23 lung
ACHN renal = test system: ACHN renal
MDA-MB-231 breast = test system: MDA-MB-231 breast
TK-10 renal = test system: TK-10 renal

Compound	TGI (HL-60(TB) leukemia) [µM]	TGI (OVCAR-3 ovarian) [µM]	TGI (COLO 205 colon) [µM]	TGI (EKVX NSCLC) [µM]	TGI (SK-MEL-5 melanoma) [µM]	TGI (NCI-H522 lung) [µM]	TGI (T-47D breast) [µM]	TGI (UACC-62 melanoma) [µM]	TGI (CCRF-CEM leukemia) [µM]	TGI (NCI-H460 lung) [µM]	TGI (HS 578T breast) [µM]	TGI (U251 CNS) [µM]	TGI (HOP-62 NSCLC) [µM]	TGI (NCI-H23 lung) [µM]	TGI (ACHN renal) [µM]	TGI (MDA-MB-231 breast) [µM]	TGI (TK-10 renal) [µM]
C=CCN(c1cc(OC)c(NC(C)=O)cc1[N+](=O)[O-])S(C)(=O)=O	> 100	> 100	> 100	> 100	> 100	12.5	> 100	> 100	> 100	> 100	> 100	> 100	> 100	> 100	> 100	> 100	> 100
COc1ccc(C(CC2(c3ccc(OC)cc3)SCCCS2)NC(C)=O)cc1 (configuration not stated)	> 100	> 100	56.7	> 100	37.7	> 100	66.5	> 100	> 100	> 100	> 100	> 100	> 100	> 100	> 100	> 100	> 100
Cc1ccc(CC2(C(=O)O)Cc3ccc(C)cc3C2)cc1 (configuration not stated)	> 100	> 100	> 100	> 100	> 100	> 100	> 100	> 100	> 100	> 100	> 100	> 100	> 100	> 100	> 100	> 100	> 100
C[C@H](C1CC(C)(O)C(C)(O)C(O)O1)[C@H]1CC[C@H]2[C@@H]3[C@@H]4O[C@@H]4[C@@]4(O)CC=CC(=O)[C@]4(C)[C@H]3CC[C@]12C (some centres not stated)	> 50	> 50	> 50	> 50	> 50	> 50	> 50	> 50	> 50	> 50	17.4	> 50	> 50	> 50	> 50	> 50	> 50
CC[C@]12C=CCN3CC[C@@]4(c5cc(N=O)c(OC)cc5N(C)[C@H]4[C@@](O)(C(=O)OC)[C@@H]1OC(C)=O)[C@@H]32	> 100	> 100	> 100	> 100	> 100	36.5	> 100	> 100	74.1	> 100	> 100	33.3	> 100	> 100	> 100	> 100	> 100
O=C1NC2c3c(I)sc(I)c3C(=O)C2O1 (configuration not stated)	> 31.6	11.1	–	16.5	6.16	3.16	> 45.7	23.3	11	32.9	35.1	> 50	28.1	16.6	7.89	7.86	27.3
CCOC(=O)c1cc(C2CCN(c3ccccc3)C2=O)c(/C(O)=C/C(C)=O)[nH]1 (configuration not stated)	76	> 100	> 100	> 100	> 100	> 100	> 100	> 100	> 100	> 100	> 100	> 100	> 100	> 100	> 100	> 100	> 100
CC1=NN(c2nc(N)nc(CN3CCOCC3)n2)C(C)(C)C1	30.1	> 100	> 100	> 100	> 100	29.1	> 100	> 100	90.8	> 100	> 100	> 100	> 100	> 100	> 100	> 100	> 100
CCOC(=O)Cc1csc(NC(NC(=O)OCC)(C(=O)OCC)C(F)(F)F)n1 (configuration not stated)	> 100	> 100	> 100	> 100	> 100	> 100	> 100	–	> 100	> 100	> 100	> 100	> 100	> 100	> 100	> 100	> 100
CCOc1cc(C2CC(c3ccc(NS(=O)(=O)c4cc([N+](=O)[O-])ccc4C)cc3)=NN2S(=O)(=O)c2cc([N+](=O)[O-])ccc2C)ccc1O (configuration not stated)	> 100	71.5	> 100	82.2	64.8	> 100	65.1	–	> 100	–	> 100	> 100	> 100	> 100	> 100	> 100	> 100
O=c1ccc2ccc(OP(=O)(O)O)cc2o1	> 100	> 100	> 100	> 100	> 100	> 100	> 100	> 100	> 100	> 100	> 100	> 100	> 100	> 100	> 100	> 100	> 100
O=C(C=P(c1ccccc1)(c1ccccc1)c1ccccc1)c1ccc(-c2cccs2)cc1	4.87	8.52	1.95	7.09	5.25	12	9.61	10.7	22.1	12.2	49.4	14.7	20.7	56.2	19.8	25.5	11.3
O=C1C2C(C(=O)N1c1ccccc1)C1(c3ccccc3)CCC2(C(=O)c2ccccc2)O1 (configuration not stated)	> 10	> 10	> 10	> 10	> 10	> 10	> 10	> 10	> 10	> 10	> 10	> 10	> 10	> 10	> 10	> 10	> 10
